Experimental data published in patent publication US20020155106A1 (priority 2000, published 2002).
Ends that are not written are not given here. amino resin = not defined here; spacer = not defined here

How the values were obtained:
SV40 = format: binding, simian virus 40
[1] = target: alpha-1-proteinase inhibitor (API) (Homo sapiens, UniProt P01009); format: binding
Polio Virus = format: binding, poliovirus
HAV [2] = format: binding, hepatitis A virus
PPV [3] = format: binding, porcine parvovirus
BVDV = format: binding, bovine viral diarrhea virus
HIV = format: binding, human immunodeficiency virus
PRV [4] = format: binding, pseudorabies virus; conditions: peptide resin
PPV [5] = format: binding, porcine parvovirus; remark: listed apart in the source
PRV [6] = format: binding, pseudorabies virus
HAV [7] = format: binding, hepatitis A virus; remark: listed apart in the source

Chain of alpha-1-proteinase inhibitor (API) (P01009 25-418): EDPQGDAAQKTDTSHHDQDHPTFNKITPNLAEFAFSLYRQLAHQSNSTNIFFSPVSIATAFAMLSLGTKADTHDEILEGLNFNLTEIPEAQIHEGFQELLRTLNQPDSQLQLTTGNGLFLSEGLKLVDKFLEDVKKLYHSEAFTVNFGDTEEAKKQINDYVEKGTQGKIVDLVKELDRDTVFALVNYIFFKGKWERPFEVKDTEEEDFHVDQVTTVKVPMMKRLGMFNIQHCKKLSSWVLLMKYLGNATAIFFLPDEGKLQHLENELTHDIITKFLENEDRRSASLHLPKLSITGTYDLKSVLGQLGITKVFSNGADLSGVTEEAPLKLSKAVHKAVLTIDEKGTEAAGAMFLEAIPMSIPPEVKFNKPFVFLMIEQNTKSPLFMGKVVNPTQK

In the case of FLLFQP: Table 1 sample 5, the “Screen (positive bead, ligand identified for virus)” value (SV40) is reported as “SV40”.
In the case of AQTFHD: Table 2 sample 1, the “binding to API” value [1] is reported as “API-binding”.
In the case of SKNNAA: Table 2 sample 8, the “binding to API” value [1] is reported as “API-binding”.
For VLYTNN: Table 2 sample 6, the “binding to API” value [1] was “API-binding”.
With FLLIDA: Table 1 sample 8 the “Screen (positive bead, ligand identified for virus)” value (Polio Virus) was “Polio”.
With “FLLPYK: consensus peptide synthesized onto amino resin with a spacer at the carboxy terminal (FLLPYK-{spacer-amino resin}; not fully specified; reading uncertain)” the “binds HAV” value (HAV [2]) was “binds”, the “logs reduction (clearance) of PPV in column flow-through” value (shortened to “logs reduction (clearance) of PPV”) (PPV [3]) was “five” and the “binds BVDV” value (BVDV) was “binds”. The “binds HIV” value (HIV) was “binds” and the “binds PRV” value (PRV [4]) was “binds”.
FLLYAK: also Table 4 sample 46 was tested, and the “binds PPV (sequences that bind to all three viruses)” value (PPV [5]) was “bind”, the “binds PRV (sequences that bind to all three viruses)” value (PRV [6]) was “bind” and the “binds HAV (sequences that bind to all three viruses)” value (HAV [7]) was “bind”.
For LKRIEY: Table 2 sample 3, the “binding to API” value [1] was “API-binding”.
“amino-FLLP: truncated peptide on resin (on resin)” was tested, and the “logs reduction (clearance) of PPV” value (PPV [3]) was “no significant clearance”.
In the case of “Acetyl-FLLPYK: N-acetylated FLLPYK on resin (Ac-FLLPYK)”, the “logs reduction (clearance) of PPV” value (PPV [3]) is reported as “no clearance”.
APPRTV: Table 2 sample 5 was tested, and the “binding to API” value [1] was “API-binding”.
With RDYDTD: Table 2 sample 2 the “binding to API” value [1] was “API-binding”.
With SDLRRL: Table 2 sample 4 the “binding to API” value [1] was “API-binding”.
In the case of NFZQNT: Table 2 sample 7, the “binding to API” value [1] is reported as “API-binding”.
